Measured values: the NIST ThermoML archive (doi:10.1016/j.jct.2006.01.016)

Experiments:
[1] = 101 kPa, Liquid
[2] = xn = mol fraction of the nth substance listed; conditions: 101 kPa, Liquid

CCCCn1cc[n+](C)c1.F[B-](F)(F)F [1-butyl-3-methylimidazolium tetrafluoroborate]
[1]
Conditions	mass density [kg/m3]	speed of sound [m/s]
298.15 K	1201.42	1576
303.15 K	1197.88	1555.5
308.15 K	1194.35	1543.9
313.15 K	1190.82	1532.5
318.15 K	1187.29	1521.2

CC#N [acetonitrile]
[1]
Conditions	mass density [kg/m3]	speed of sound [m/s]
298.15 K	776.533	1278.6
303.15 K	771.116	1258.7
308.15 K	765.66	1238.7
313.15 K	760.162	1218.5
318.15 K	754.462	1198.3

CC#N [acetonitrile] + CCCCn1cc[n+](C)c1.F[B-](F)(F)F
[2], x2 = 0
Conditions	mass density [kg/m3]	speed of sound [m/s]
298.15 K	776.533	1278.6
303.15 K	771.116	1258.7
308.15 K	765.66	1238.7
313.15 K	760.162	1218.5
318.15 K	754.462	1198.3

CCCCn1cc[n+](C)c1.F[B-](F)(F)F [1-butyl-3-methylimidazolium tetrafluoroborate] + CO
[2]
Conditions	mass density, 298.15 K [kg/m3]	mass density, 303.15 K [kg/m3]	mass density, 308.15 K [kg/m3]	mass density, 313.15 K [kg/m3]	mass density, 318.15 K [kg/m3]	speed of sound, 298.15 K [m/s]	speed of sound, 303.15 K [m/s]	speed of sound, 308.15 K [m/s]	speed of sound, 313.15 K [m/s]	speed of sound, 318.15 K [m/s]
x1 = 0.0086	805.151	800.482	795.796	791.081	786.347	–	1105.3	1089.3	1073.5	1057.8
x1 = 0.0473	871.093	866.582	862.063	857.529	852.979	–	1162.4	1147.8	1133.1	1118.6
x1 = 0.0989	935.734	931.386	927.032	922.668	918.304	–	1224.6	1211	1197.5	1184
x1 = 0.2027	1020.75	1016.6	1012.46	1008.33	1004.19	–	1321.8	1309.2	1296.5	1284
x1 = 0.3516	1090.69	1086.81	1082.62	1079.1	1075.21	1423.6	1411.3	1399.1	–	1375
x1 = 0.4958	1131.97	1128.15	1124.35	1120.99	1117.11	1477	1465	1453.1	1441.8	1430.1
x1 = 0.6961	1168.33	1164.63	1160.96	1157.3	1153.66	1524.1	1512.2	1500.4	1488.8	1477.2
x1 = 0.7982	1181.54	1177.91	1174.28	1170.67	1167.07	1541.2	1529.5	1517.9	1506.3	1494.8
x1 = 1	1201.42	1197.88	1194.35	1190.82	1187.29	1576	1555.5	1543.9	1532.5	1521.2
